Converted amounts (≈) assume the structure as drawn. Where two headings read alike, the source gives them in different places.
Key:
[1] = test system: P. acnes PRP-007; assay: Disc diffusion assay (DDA); format: cell-based, Propionibacterium acnes; conditions: zone diameter, 200 μg per disc
Protocol: (§1) The Propionibacterium spp organisms were cultured and maintained on Wilkins-Chalgren Anaerobe Medium (agar and broth) at pH 6.0; cultures were incubated anaerobically at 37° C. for 72 hours.
(§2) A sterile paper disc was impregnated with a sample of the test compound and a minimum of 30 minutes allowed for the solvents to evaporate as far as possible. The disc was then placed on an agar plate onto which the test micro-organism had been inoculated. The plate was then incubated under the conditions described above, following which it was examined visually for signs of bacterial growth. If the test compound had antimicrobial activity, a circular zone of no growth would be obtained around the disc. The diameter of this zone of “inhibition” was measured using a ProtoCOL™ automated zone sizer (Synbiosis, Cambridge, UK). In general, a greater diameter and/or area of the zone of inhibition indicates a greater antimicrobial activity in the relevant test compound, although other factors such as test compound mobility through the agar gel may also influence the result.
(§3) The area of the zone of inhibition was calculated from the measured zone diameter (D) using the formula π(D/2)^2.

[2] = test system: P. acnes PRP-068; assay: Disc diffusion assay (DDA); format: cell-based, Propionibacterium acnes; conditions: zone diameter, 200 μg per disc
Protocol: as §1, §2, §3

[3] = test system: P. acnes PRP-023; assay: Disc diffusion assay (DDA); format: cell-based, Propionibacterium acnes; conditions: zone diameter, 200 μg per disc
Protocol: as §1, §2, §3

[4] = test system: P. acnes PRP-026; assay: Disc diffusion assay (DDA); format: cell-based, Propionibacterium acnes; conditions: zone diameter, 200 μg per disc
Protocol: as §1, §2, §3

[5] = test system: P. acnes PRP-002; assay: Disc diffusion assay (DDA); format: cell-based, Propionibacterium acnes; conditions: zone diameter, 200 μg per disc
Protocol: as §1, §2, §3

[6] = test system: P. acnes PRP-059; assay: Disc diffusion assay (DDA); format: cell-based, Propionibacterium acnes; conditions: zone diameter, 200 μg per disc
Protocol: as §1, §2, §3

[7] = test system: P. acnes PRP-008; assay: Disc diffusion assay (DDA); format: cell-based, Propionibacterium acnes; conditions: zone diameter, 200 μg per disc
Protocol: as §1, §2, §3

[8] = test system: P. acnes PRP-003; assay: Disc diffusion assay (DDA); format: cell-based, Propionibacterium acnes; conditions: zone diameter, 200 μg per disc
Protocol: as §1, §2, §3

[9] = test system: P. acnes PRP-046; assay: Disc diffusion assay (DDA); format: cell-based, Propionibacterium acnes; conditions: zone diameter, 200 μg per disc
Protocol: as §1, §2, §3

[10] = test system: P. acnes PRP-101; assay: Disc diffusion assay (DDA); format: cell-based, Propionibacterium acnes; conditions: zone diameter, 200 μg per disc
Protocol: as §1, §2, §3

[11] = test system: P. acnes PRP-102; assay: Disc diffusion assay (DDA); format: cell-based, Propionibacterium acnes; conditions: zone diameter, 200 μg per disc
Protocol: as §1, §2, §3

[12] = test system: Staphylococcus auricularis ATCC 33753; assay: MIC assay; format: cell-based; conditions: ATCC33753
Protocol: (§4) The staphylococci and enterococci were cultured and maintained on Mueller-Hinton Medium (agar and broth) at pH 7.2; they were incubated aerobically at 37° C. for 24 hours.
(§5) This is a standard international method for quantitatively assessing the antimicrobial activity of a compound in a liquid medium. The method used a 96-well microtitre plate, capable of holding about 200 μl of liquid per well. […] The culture media were as described above for the relevant test organisms.
(§6) The wells were inoculated with a liquid suspension of freshly grown micro-organism and incubated under the conditions described above. After incubation, the microtitre plate was examined visually (with the aid of a light box) for cell pellets in and/or opaque wells, which would indicate microbial growth. The MIC value was recorded as the lowest concentration of test compound required to inhibit microbial growth, ie, the lowest concentration for which the liquid in the well remained clear.
(§7) The assays were conducted in duplicate and included both negative (culture medium only) and positive (culture medium, diluting solvent and inoculum) controls.

[13] = test system: S. aureus ATCC 12605; assay: MIC assay; format: cell-based; conditions: Staphylococcus aureus, ATCC12605
Protocol: as §4, §5, §6, §7

[14] = test system: S. aureus ATCC 12604; assay: MIC assay; format: cell-based; conditions: Staphylococcus aureus, ATCC12604
Protocol: as §4, §5, §6, §7

[15] = test system: Staphylococcus xylosus ATCC 29971; assay: MIC assay; format: cell-based; conditions: ATCC29971
Protocol: as §4, §5, §6, §7

[16] = test system: Staphylococcus warneri ATCC 27836; assay: MIC assay; format: cell-based; conditions: ATCC27836
Protocol: as §4, §5, §6, §7

[17] = test system: Staphylococcus aureus ATCC 12600; assay: MIC assay; format: cell-based; conditions: ATCC12600
Protocol: as §4, §5, §6, §7

[18] = test system: S. aureus ATCC 12606; assay: MIC assay; format: cell-based; conditions: Staphylococcus aureus, ATCC12606
Protocol: as §4, §5, §6, §7

[19] = test system: S. epidermidis (NCTC 11047); assay: MIC assay; format: cell-based; conditions: Staphylococcus epidermidis, NCTC11047
Protocol: as §4, §5, §6, §7

[20] = test system: S. aureus ATCC 25923; assay: MIC assay; format: cell-based; conditions: Staphylococcus aureus, ATCC25923
Protocol: as §4, §5, §6, §7

[21] = test system: S. aureus CPHL VISA Mu50; assay: MIC assay; format: cell-based; conditions: Staphylococcus aureus
Protocol: as §4, §5, §6, §7

[22] = test system: S. aureus ATCC 12600-U; assay: MIC assay; format: cell-based; conditions: Staphylococcus aureus, ATCC12600
Protocol: as §4, §5, §6, §7

[23] = test system: S. aureus CPHL VISA Mu3; assay: MIC assay; format: cell-based; conditions: Staphylococcus aureus
Protocol: as §4, §5, §6, §7

[24] = test system: S. aureus ATCC 12601; assay: MIC assay; format: cell-based; conditions: Staphylococcus aureus, ATCC12601
Protocol: as §4, §5, §6, §7

[25] = test system: S. aureus ATCC 12602; assay: MIC assay; format: cell-based; conditions: Staphylococcus aureus, ATCC12602
Protocol: as §4, §5, §6, §7

[26] = test system: S. aureus CPHL EMRSA 17; assay: MIC assay; format: cell-based; conditions: Staphylococcus aureus
Protocol: as §4, §5, §6, §7

[27] = test system: Staphylococcus simulans ATCC 27848; assay: MIC assay; format: cell-based; conditions: ATCC27848
Protocol: as §4, §5, §6, §7

[28] = test system: S. aureus ATCC 12607; assay: MIC assay; format: cell-based; conditions: Staphylococcus aureus, ATCC12607
Protocol: as §4, §5, §6, §7

[29] = test system: Staphylococcus haemolyticus ATCC 29970; assay: MIC assay; format: cell-based; conditions: ATCC29970
Protocol: as §4, §5, §6, §7

[30] = test system: Staphylococcus cohnii ATCC 29974; assay: MIC assay; format: cell-based; conditions: ATCC29974
Protocol: as §4, §5, §6, §7

Row | Compound | DDA [1] | DDA [2] | DDA [3] | DDA [4] | DDA [5] | DDA [6] | DDA [7] | DDA [8] | DDA [9] | DDA [10] | DDA [11] | MIC [14] [µg/mL] | MIC [17] [µg/mL] | MIC [21] [µg/mL] | MIC [23] [µg/mL] | MIC [25] [µg/mL] | MIC [26] [µg/mL] | MIC [30] [µg/mL] | also measured
1 | CC(C)(C)c1cc(O)ccc1O [TBHQ, t-butyl hydroquinone] | 13.43 (±2.49) mm | 20.89 (±1.08) mm | 23.90 (±0.00) mm | 8.18 (±0.72) mm | 28.42 (±0.95) mm | 17.56 (±0.72) mm | 14.47 (±0.90) mm | 38.01 (±1.02) mm | 17.46 (±1.58) mm | 0.0 (±0.00) mm | 23.80 (±0.10) mm | 7.8 (≈ 46.9 µM) | 3.9 (≈ 23.5 µM) | 3.9 (≈ 23.5 µM) | 3.9 (≈ 23.5 µM) | 3.9 (≈ 23.5 µM) | 1.95 (≈ 11.7 µM) | 3.9 (≈ 23.5 µM) | MIC ([12]; Staphylococcus auricularis ATCC 33753, read-out: MIC): 0.98 µg/mL (≈ 5.9 µM); MIC [13]: 3.9 µg/mL (≈ 23.5 µM); MIC ([15]; Staphylococcus xylosus): 7.8 µg/mL (≈ 46.9 µM); MIC ([16]; Staphylococcus warneri): 3.9 µg/mL (≈ 23.5 µM); MIC [18]: 7.8 µg/mL (≈ 46.9 µM); MIC [19]: 3.9 µg/mL (≈ 23.5 µM); MIC [20]: 7.8 µg/mL (≈ 46.9 µM); MIC [22]: 3.9 µg/mL (≈ 23.5 µM); MIC [24]: 7.8 µg/mL (≈ 46.9 µM); MIC ([27]; Staphylococcus simulans): 7.8 µg/mL (≈ 46.9 µM); MIC [28]: 3.9 µg/mL (≈ 23.5 µM); MIC ([29]; Staphylococcus haemolyticus): 3.9 µg/mL (≈ 23.5 µM)
2 | O=C(OOC(=O)c1ccccc1)c1ccccc1 [benzoyl peroxide] | 23.88 (±1.42) mm | 28.79 (±0.95) mm | 24.11 (±0.65) mm | 26.52 (±0.65) mm | 25.69 (±0.66) mm | 23.49 (±0.48) mm | 27.80 (±1.29) mm | 25.69 (±0.66) mm | 24.36 (±0.36) mm | 25.73 (±1.99) mm | 29.62 (±1.12) mm | 125 (≈ 516 µM) | 125 (≈ 516 µM) | 125 (≈ 516 µM) | 125 (≈ 516 µM) | 125 (≈ 516 µM) | 125 (≈ 516 µM) | 62.5 (≈ 258 µM) | MIC ([12]; Staphylococcus auricularis): 15.6 µg/mL (≈ 64.4 µM); MIC ([13]; S. aureus ATCC 12605, read-out: MIC): 250 µg/mL (≈ 1030 µM); MIC ([15]; Staphylococcus xylosus ATCC 29971, read-out: MIC): 250 µg/mL (≈ 1030 µM); MIC ([16]; Staphylococcus warneri ATCC 27836, read-out: MIC): > 250 µg/mL; MIC ([18]; S. aureus ATCC 12606, read-out: MIC): 250 µg/mL (≈ 1030 µM); MIC ([19]; S. epidermidis NCTC 11047, read-out: MIC): 250 µg/mL (≈ 1030 µM); MIC ([20]; S. aureus ATCC 25923, read-out: MIC): 250 µg/mL (≈ 1030 µM); MIC ([22]; S. aureus ATCC 12600-U, read-out: MIC): 250 µg/mL (≈ 1030 µM); MIC ([24]; S. aureus ATCC 12601, read-out: MIC): 250 µg/mL (≈ 1030 µM); MIC ([27]; Staphylococcus simulans ATCC 27848, read-out: MIC): > 250 µg/mL; MIC ([28]; S. aureus ATCC 12607, read-out: MIC): 250 µg/mL (≈ 1030 µM); MIC ([29]; Staphylococcus haemolyticus ATCC 29970, read-out: MIC): 250 µg/mL (≈ 1030 µM)

Reference: patent US20080262097A1, “Formulations” (priority 2005, published 2008)
